Structures are written as SMILES.

One experiment addresses T1, human CYP11B2 (Homo sapiens, UniProt P19099).
T1 construct: expressed in transfected cells
T1 sequence (P19099 25-503): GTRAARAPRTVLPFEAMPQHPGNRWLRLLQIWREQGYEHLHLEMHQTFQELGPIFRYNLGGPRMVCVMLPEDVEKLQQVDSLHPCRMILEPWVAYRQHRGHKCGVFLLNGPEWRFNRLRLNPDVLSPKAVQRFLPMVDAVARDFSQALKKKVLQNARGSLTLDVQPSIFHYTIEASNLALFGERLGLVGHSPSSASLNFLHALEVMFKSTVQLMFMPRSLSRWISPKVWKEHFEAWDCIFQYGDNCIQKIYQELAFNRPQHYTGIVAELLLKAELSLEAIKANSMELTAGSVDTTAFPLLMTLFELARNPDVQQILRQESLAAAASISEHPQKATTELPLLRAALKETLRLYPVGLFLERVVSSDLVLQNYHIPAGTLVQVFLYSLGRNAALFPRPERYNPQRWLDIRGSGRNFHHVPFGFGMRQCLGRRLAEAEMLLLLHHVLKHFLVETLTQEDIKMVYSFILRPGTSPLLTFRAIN
The experiment in a line: G-402 cellular enzyme assay, human CYP11B2 (aldosterone release, HTRF). The class given is cell-based. Conditions: G-402 cells, 1 μM Deoxycorticosterone. The method in brief:
(§1)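 Inhibition of steroid release was taken as enzyme inhibition. CYP11B1 assays used 1 μM deoxycortisol with cortisol detection, CYP11B2 assays 1 μM deoxycorticosterone with aldosterone detection, both by HTRF after 16 h in stable G-402 cells; EC50 from least-squares MMF fit.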
A general note: In TR-FRET formats the signal depends on donor and acceptor labels being close together.

For a further experiment, the target named is T2, human CYP11B1 (Homo sapiens, UniProt P15538).
T2 construct: expressed in transfected cells
T2 sequence (P15538 25-503): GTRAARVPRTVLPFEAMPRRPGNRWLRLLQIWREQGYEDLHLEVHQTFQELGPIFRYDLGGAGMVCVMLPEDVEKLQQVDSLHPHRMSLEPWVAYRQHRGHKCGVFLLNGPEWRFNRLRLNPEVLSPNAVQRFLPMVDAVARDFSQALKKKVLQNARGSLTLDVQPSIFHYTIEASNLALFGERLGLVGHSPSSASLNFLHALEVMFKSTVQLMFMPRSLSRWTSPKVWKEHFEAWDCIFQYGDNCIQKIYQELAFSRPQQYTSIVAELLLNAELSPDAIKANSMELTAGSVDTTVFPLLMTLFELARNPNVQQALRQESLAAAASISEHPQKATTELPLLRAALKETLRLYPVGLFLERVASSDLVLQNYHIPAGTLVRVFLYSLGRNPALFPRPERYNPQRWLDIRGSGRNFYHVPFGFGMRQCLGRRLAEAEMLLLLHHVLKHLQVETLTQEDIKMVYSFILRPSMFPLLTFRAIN
The experiment in a line: G-402 cellular enzyme assay, human CYP11B1 (cortisol release, HTRF). The class given is cell-based. Conditions: G-402 cells, 1 μM Deoxycortisol. The method in brief: as §1

What is called EC50 is the concentration needed to bring the measured effect to its halfway point. With `CC(=O)N[C@@H]1CCCc2c1cncc2N1C(=O)c2ccc(Cl)cc2[C@H]1C1CC1` (single isomer, unassigned) [Example 372, N-[(R or S)-4-((R or S)-5-Chloro-3-cyclopropyl-1-oxo-1,3-dihydro-isoindol-2-yl)-5,6,7,8-tetrahydro-isoquinolin-8-yl]-acetamide], the results for the EC50 on human CYP11B2 and on human CYP11B1 were 100 nM and 22800 nM, respectively.
In the case of `O=C1c2ccc(Cl)cc2CCN1c1cncc(Cn2cc3ccccc3n2)c1` [Example 183, 6-Chloro-2-(5-indazol-2-ylmethyl-pyridin-3-yl)-3,4-dihydro-2H-isoquinolin-1-one], the figures for the EC50 on human CYP11B2 and on human CYP11B1 were 29.9 nM and 385 nM, respectively.
The corresponding values for `CC1(C)c2cc(Cl)ccc2C(=O)N1c1cncc(C2CCCN(S(C)(=O)=O)C2)n1` (centres unmarked) [Example 465, 5-Chloro-2-[6-(1-methanesulfonyl-piperidin-3-yl)-pyrazin-2-yl]-3,3-dimethyl-2,3-dihydro-isoindol-1-one] are 66.9 nM and 2270 nM.
The corresponding values for `Cc1cc(-c2cncc(N3CCc4cc(Cl)ccc4C3=O)c2)n(C)n1` [Example 422, 6-Chloro-2-[5-(2,5-dimethyl-2H-pyrazol-3-yl)-pyridin-3-yl]-3,4-dihydro-2H-isoquinolin-1-one] are 154 nM and 11100 nM.
The corresponding values for `O=C1c2ccc(Cl)cc2CN1c1cncc2c1CCCC2O` (centres unmarked) [Example 117, 5-Chloro-2-(8-hydroxy-5,6,7,8-tetrahydro-isoquinolin-4-yl)-2,3-dihydro-isoindol-1-one] are 127 nM and 894 nM.
For `COC(C)c1c(F)cncc1N1CCc2cc(Cl)ccc2C1=O` (centres unmarked) [Example 76, 6-Chloro-2-[5-fluoro-4-(1-methoxy-ethyl)-pyridin-3-yl]-3,4-dihydro-2H-isoquinolin-1-one], the concentration giving a half-maximal response (EC50) was found to be 492 nM at human CYP11B2 and 13800 nM at human CYP11B1.
The corresponding values for `O=C1c2ccc(Cl)cc2CCN1c1cncc(Cn2nccn2)c1` [Example 174, 6-Chloro-2-(5-[1,2,3]triazol-2-ylmethyl-pyridin-3-yl)-3,4-dihydro-2H-isoquinolin-1-one] are 25.8 nM and 211 nM.
The corresponding values for `O=C1c2ccc(Cl)cc2CCN1c1cncc(Cn2ncc3ccccc32)c1` [Example 182, 6-Chloro-2-(5-indazol-1-ylmethyl-pyridin-3-yl)-3,4-dihydro-2H-isoquinolin-1-one] are 27.5 nM and 306 nM.
The like results for `CC1(C)c2cc(Cl)ccc2C(=O)N1c1cccnc1` [Example 128, 5-Chloro-3,3-dimethyl-2-pyridin-3-yl-2,3-dihydro-isoindol-1-one] were, in that order, 108 nM and 4280 nM.
For the compound `CC(C)N1CCN(Cc2cncc(N3CCc4cc(Cl)ccc4C3=O)c2)CC1` [Example 166, 6-Chloro-2-[5-(4-isopropyl-piperazin-1-ylmethyl)-pyridin-3-yl]-3,4-dihydro-2H-isoquinolin-1-one], the EC50 at human CYP11B2 is 14.1 nM; on human CYP11B1 it was 96.3 nM.
The corresponding values for `CC(C)OCc1ccncc1N1CCc2cc(Cl)ccc2C1=O` [Example 77, 6-Chloro-2-(4-isopropoxy-methyl-pyridin-3-yl)-3,4-dihydro-2H-isoquinolin-1-one] are 665 nM and 12800 nM.
The like results for `Cn1nccc1-c1cncc(N2CCc3cc(Cl)ccc3C2=O)c1Cl` [Example 424, 6-Chloro-2-[4-chloro-5-(2-methyl-2H-pyrazol-3-yl)-pyridin-3-yl]-3,4-dihydro-2H-isoquinolin-1-one] were, in that order, 6.2 nM and 140 nM.
Regarding `CC(=O)N1CCN(c2cncc(N3C(=O)c4ccc(Cl)cc4C3(C)C)c2)CC1` [Example 455, 2-[5-(4-Acetyl-piperazin-1-yl)-pyridin-3-yl]-5-chloro-3,3-dimethyl-2,3-dihydro-isoindol-1-one], the values for the EC50 on human CYP11B2 and at human CYP11B1 were 8.6 nM and 717 nM, respectively.

For the origin of these results see patent publication US9133158B2, “Bicyclic dihydroisoquinoline-1-one derivatives” (Hoffmann-La Roche Inc., priority 2011, dated 2015).
